By IC50 is commonly meant the midpoint of a concentration-inhibition curve.

A value given as a limit tells only on which side of the number the result lay.

Assay [1] addresses T1, 5-lipoxygenase (5-LO) enzyme (Homo sapiens, UniProt P09917).
T1 construct: the enzyme in the cytosol was partially purified by ammonium sulphate fractionation; endogenous in cells; host or cells: human polymorphonuclear leukocytes (sonicated, cytosol, ammonium sulphate fraction)
T1 sequence (P09917 1-674): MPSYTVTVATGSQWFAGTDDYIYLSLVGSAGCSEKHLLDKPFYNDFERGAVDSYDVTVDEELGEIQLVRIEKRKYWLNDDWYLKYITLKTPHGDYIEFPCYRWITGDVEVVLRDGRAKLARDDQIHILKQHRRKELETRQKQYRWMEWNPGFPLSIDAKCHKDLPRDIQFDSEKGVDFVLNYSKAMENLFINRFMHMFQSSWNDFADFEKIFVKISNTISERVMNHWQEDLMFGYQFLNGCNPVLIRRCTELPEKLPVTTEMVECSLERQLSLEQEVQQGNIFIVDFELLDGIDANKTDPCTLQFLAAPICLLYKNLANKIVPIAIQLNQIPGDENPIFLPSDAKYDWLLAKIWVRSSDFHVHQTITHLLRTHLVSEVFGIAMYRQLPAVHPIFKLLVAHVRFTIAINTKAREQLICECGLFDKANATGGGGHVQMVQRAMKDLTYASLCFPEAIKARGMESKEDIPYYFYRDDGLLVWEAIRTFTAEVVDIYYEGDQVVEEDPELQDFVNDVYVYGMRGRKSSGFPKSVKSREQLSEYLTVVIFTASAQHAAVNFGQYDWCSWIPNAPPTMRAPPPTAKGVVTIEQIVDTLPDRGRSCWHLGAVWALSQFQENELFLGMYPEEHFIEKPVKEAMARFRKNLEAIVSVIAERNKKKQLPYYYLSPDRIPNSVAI
The assay can be described thus: Measurement of 5-LO enzyme activity in cell free system prepared from human leukocytes (direct). The format is biochemical. The settings on record: human polymorphonuclear leukocytes, 0.02 mM arachidonic acid, pH 7.5, 37° C., 5 minutes, read-out: 5-lipoxygenase enzyme inhibition, direct, IC50. As to the method:
1. Measurement of 5-LO enzyme activity in cell free system prepared from human leukocytes
The enzyme activity was measured according to the modified method of Ochi et al. [K. Ochi, T. Yoshimoto, S. Yamamoto, K. Taniguchi, T. Miyamoto: Arachidonate 5-lipoxygenase of guinea pig peritoneal polymorphonuclear leukocytes, J. Biol. Chem. 258, 5754-5758 (1983)]. The principle of the method is as follows: in in vitro systems, during the reaction catalysed by 5-LO 5-hydroxyperoxy-6,8,11,14-eicosatetraenoic acid (5-HPETE) is formed from arachidonic acid, then it is transformed to 5-hydroxy-6,8,11,14-eicosatetraenoic acid (5-HETE). Both 5-HPETE and 5-HETE have absorption maximum at 236 nm, therefore it is possible to determine the activity of 5-LO enzyme by measuring the change of absorption at 236 nm. 5-LO was prepared from human polymorphonuclear leukocytes by a simple purification procedure. The cells were washed and lysed by a sonic disintegrator. The lysate was centrifuged and the enzyme in the cytosol was partially purified by ammonium sulphate fractionation (the enzyme precipitates at 50% saturation). The reaction mixture (50 mM tris-HCl pH=7.5, 2mM CaCl2, 0.1 mM ATP, 0.02 mM arachidonic acid) was incubated at 37° C. for 5 minutes. The reaction was started with the addition of arachidonic acid and stopped by the addition of 10 mM of citric acid. The thus-obtained 5-HPETE and 5-HETE were extracted with a 6:4 mixture of diethyl ether and hexane and the absorption of the organic phase was measured by spectrophotometry at […].

Another assay has as its system PAF lethality in mice. Briefly: PAF induced anaphylactic shock test in mice (PAF lethality). The format is in vivo. The conditions noted are these: Mus musculus, ip, 1 h; male NMRI mice, intraperitoneal, 30 minutes before intravenous PAF 100 μg/kg, mortality at one hour; read-out: PAF lethality in mice ID50. The protocol: 4. PAF induced anaphylactic shock test in mice
A modification of the method of Young et al. [Young, J. M., Maloney, P. J., Jubb, S. N. and Clark, J. S.: Pharmacological investigation of the mechanism of platelet-activating factor mortality in the mouse, Prostaglandins 30, 545-551 (1985)] was used. The experiments were carried out in male NMRI mice weighing 20-25 g (10 animals/group). The test compounds were suspended in 0.4% methyl cellulose and administered intraperitoneally in a volume of 10 ml/kg. The mice of the control group received only vehicle. 30 minutes later the animals received intravenous PAF in a dose of 100 μg/kg (5 ml/kg). Mortality was determined one hour after PAF administration. Every experiment was repeated three times (n=30). The ratio of mortality of the treated animals was compared to that of the control mice. ID50 values were calculated by linear regression analysis.

Assay [2] concerns the target T1, 5-lipoxygenase (5-LO) enzyme. Briefly: Determination of 5-LO enzyme activity of human leukocytes by measuring their leukotriene B4 production (whole cell). The assay is classed as cell-based. The conditions noted are these: human PMN leukocytes, LTB4 release, ionophore A-23187 0.001 mM, pH 7.2, 37° C., 15 minutes, RIA; read-out: 5-lipoxygenase enzyme inhibition, in whole cell, IC50. From the text:
2. Determination of 5-LO enzyme activity of human leukocytes by measuring their leukotriene B4 production
The method of Mia et al. was applied [H. Mita, Y. Yui and T. Shida: Effect of AA-861, a 5-lipoxygenase inhibitor on leukotriene synthesis in human polymorphonuclear leukocytes and on cyclooxygenase and 12-lipoxygenase activities in human platelets, Allergy 41, 493-498, (1986)]. The principle of the experiment is as follows: the calcium ionophore A-23187 induces the synthesis and the release of LTB4 by human polymorphonuclear leukocytes. The amount of LTB4 released into the incubation medium reflects the 5-LO enzyme activity of the intact cells. The incubation medium was Hank's balanced medium (HBBS) supplemented with 17 mM of Tris-HCl (pH 7.2), 1.22 mM of CaCl2, 1 mM of MgCl2, 0.001 mM of A-23187 and 10^4 PMN leukocyte per ml reaction mixture. The reaction was started with the addition of ionophore then incubated at 37° C. for 15 minutes. The reaction was stopped by adding 5 mM of EDTA and by chilling the samples in an ice bath. The samples were centrifuged and the amount of LTB4 in the supernatant was determined by radioiimmunoassay (RIA).

The subject of assay [3] is Ear oedema induced by arachidonic acid in mice. The assay can be described thus: Ear oedema induced by arachidonic acid in mice. The conditions noted are these: female NMRI mice, topical, 30 minutes before arachidonic acid (3 mg), measured 60 minutes later. The format is in vivo, NMRI strain). As to the method:
3. Ear oedema induced by arachidonic acid in mice
Inflammation of ear was induced by arachidonic acid using a modified version of the procedure described by Young et al. [Young, J. M., Spires, D. A., Bedord, C. J., Wagner, B., Ballaron, S. J., De Young, L. M.: The mouse ear inflammatory response to topical arachidonic acid, J. Invest. Dermatol. 82, 67-371 (1984)]. The experiments were carried out in female mice from the NMRI strain weighing 25 to 30 g (8 animals/groups). Drugs were applied topically in acetone or ethanol by an automatic pipette in 10 μl volumes to both the inner and outer surfaces of the ear. 30 minutes after drug or vehicle administration both sides of the left ear were brushed with 3 mg of arachidonic acid in 20 μl of acetone and both sides of the right ear were treated with 20 μl of acetone only. 60 minutes later the animals were killed by aether, then a disk of 7 mm diameter was cut off both ears. The mass of each disk was measured by an analytical scale and the mean of the difference of the left and right ears was calculated for every group. ID50 values were determined by plotting the log-dose versus percentage response as compared to vehicle-treated animals.

Regarding `Cc1c(O)cc2c(c1C)O[C@H]1CCC[C@@H]21` (relative stereo) [Example 4, cis-6,7-Dimethyl-2,3,3a,8a-tetrahydro-1H-8-oxacyclopenta[a]indene-5-ol], the values for the IC50 in assay [1] and in assay [2] were 1200 nM and 300 nM, respectively. In addition, in the assay with PAF lethality in mice, the ED50 was 65.2 mg/kg.

On to `COc1cc2c(cc1O)[C@@H]1CC=C[C@@H]1O2` (relative stereo) [Example 5, cis-6-Methoxy-3a,8a-dihydro-3H-8-oxacyclopenta[a]indene-5-ol], for which the IC50 in assay [1] stood at 2700 nM; in assay [2], 300 nM. Also, the “Arachidonic acid ear oedeme in mice ID50” value in assay [3] is on record as 0.18 mg/ear.

For `Cc1c(C)c2c(c(C)c1O)C1CCCCCC1O2` (stereo not drawn) [Example 10, 1,2,4-Trimethyl-4b,6,7,8,9,9a-hexahydro-5H-10-oxabenzo[a]azulene-3-ol], the IC50 in assay [1] was 99 nM; in assay [2], 70 nM. In addition, the ED50 with PAF lethality in mice worked out at 22.5 mg/kg. The “Arachidonic acid ear oedeme in mice ID50” value in assay [3] is reported as 0.16 mg/ear.

For `COc1cc2c(cc1O)[C@@H]1CCC[C@@H]1O2` (relative stereo) [Example 6, cis-6-Methoxy-2,3,3a,8a-tetrahydro-1H-8-oxacyclopenta[a]indene-5-ol], the IC50 in assay [1] amounted to 1200 nM. The ED50 in the assay on PAF lethality in mice came out at 100 mg/kg. Also, in assay [3], the “Arachidonic acid ear oedeme in mice ID50” value amounted to 0.23 mg/ear.

Take `CCOc1cc2c(cc1O)[C@@H]1CCC[C@@H]1O2` (relative stereo) [Example 8, cis-6-Ethoxy-2,3,3a,8a-tetrahydro-1H-8-oxa-cyclopenta[a]indene-5-ol]: in assay [1], the IC50 was found to be 490 nM. Further, the ED50 in the assay on PAF lethality in mice worked out at 45 mg/kg.

With `CCOc1cc2c(cc1O)[C@@H]1CC=C[C@@H]1O2` (relative stereo) [Example 7, cis-6-Ethoxy-3a,8a-dihydro-3H-8-oxacyclopenta[a]indene-5-ol], the IC50 in assay [1] amounted to 1700 nM; in assay [2], 300 nM. In addition, the ED50 in the assay with PAF lethality in mice stood at 27.3 mg/kg. Moreover, the “Arachidonic acid ear oedeme in mice ID50” value in assay [3] was 0.11 mg/ear.

For the molecule `Cc1c(C)c2c(c(C)c1O)[C@@H]1CC=C[C@@H]1O2` (relative stereo) [Example 1, cis-4,6,7-Trimethyl-3a,8a-dihydro-3H-8-oxacyclopenta[a]indene-5-ol], the IC50 in assay [1] stood at 74 nM; in assay [2] it was 680 nM. The ED50 with PAF lethality in mice amounted to 51.7 mg/kg.

In the case of `Cc1c(O)cc2c(c1C)O[C@H]1C=CC[C@@H]21` (relative stereo) [Example 3, cis-6,7-Dimethyl-3a,8a-dihydro-3H-8-oxacyclopenta[a]indene-5-ol], the results for the IC50 in assay [1] and in assay [2] were 5500 nM and 500 nM, respectively.

For `CC(Cc1ccc(O)c(O)c1)C(C)Cc1ccc(O)c(O)c1` (stereo not drawn) [NDGA, 1,4-bis(3,4-dihydroxyphenyl)-2,3-dimethylbutane, reference compound], the ED50 with PAF lethality in mice was 29.2 mg/kg. Further, the “Arachidonic acid ear oedeme in mice ID50” value in assay [3] is reported as above 1.0 mg/ear.

Regarding `Cc1c(C)c2c(c(C)c1O)[C@H]1CCC=C[C@H]1O2` (relative stereo) [Example 23, cis-1,3,4-Trimethyl-5a,8,9,9a-tetrahydrodibenzofurane-2-ol], the IC50 is 540 nM in assay [1] and 140 nM in assay [2]. Besides, the ED50 in the assay with PAF lethality in mice turned out to be 23.2 mg/kg.

In the case of `Cc1c(C)c2c(c(C)c1O)[C@@H]1CCC[C@@H]1O2` (relative stereo) [Example 2, cis-4,6,7-Trimethyl-2,3,3 a,8a-tetrahydro-1H-8-oxacyclopenta[a]indene-5-ol], the values for the IC50 in assay [1] and in assay [2] were 390 nM and 50 nM, respectively. Moreover, the ED50 in the assay on PAF lethality in mice came out at 16.2 mg/kg. The “Arachidonic acid ear oedeme in mice ID50” value in assay [3] is listed as 0.18 mg/ear.

Take `CC1=C(C)C(=O)C(CCCCC#CCCCC#CCO)=C(C)C1=O` [AA-861, 2-(12-hydroxy-5,10-dodecadiinyl)-3,5,6-trimethyl-p-benzoquinone, reference compound]: the IC50 is 4100 nM in assay [1] and 1100 nM in assay [2]. Further, the ED50 in the assay with PAF lethality in mice was 58.9 mg/kg. Also, the “Arachidonic acid ear oedeme in mice ID50” value in assay [3] is 0.13 mg/ear.

Regarding `O=C1CCN(c2ccccc2)N1` [Phenidone, 1-phenyl-3-pyrazolidinone, reference compound], in the assay with PAF lethality in mice, the ED50 was 14.2 mg/kg. Moreover, the “Arachidonic acid ear oedeme in mice ID50” value in assay [3] was 0.18 mg/ear.

(Values after patent US5716986A, “Oxaindene derivatives and process for the preparation thereof” (priority 1995, dated 1998).)
